Reference: ChEMBL document CHEMBL1151609, “The discovery of novel openers of Ca2+-dependent large-conductance potassium channels: Pharmacophore search and physiological evaluation of flavonoids” (Bioorg Med Chem Lett, 1997)

Target: Calcium-activated potassium channel subunit alpha-1 (Homo sapiens) (UniProt Q12791)
Assay: The compound was tested for maxi-K channel opening property at concentration of 20 uM, activity expressed as percentage of current

Sequence of Calcium-activated potassium channel subunit alpha-1 (Homo sapiens) (Q12791 whole entry): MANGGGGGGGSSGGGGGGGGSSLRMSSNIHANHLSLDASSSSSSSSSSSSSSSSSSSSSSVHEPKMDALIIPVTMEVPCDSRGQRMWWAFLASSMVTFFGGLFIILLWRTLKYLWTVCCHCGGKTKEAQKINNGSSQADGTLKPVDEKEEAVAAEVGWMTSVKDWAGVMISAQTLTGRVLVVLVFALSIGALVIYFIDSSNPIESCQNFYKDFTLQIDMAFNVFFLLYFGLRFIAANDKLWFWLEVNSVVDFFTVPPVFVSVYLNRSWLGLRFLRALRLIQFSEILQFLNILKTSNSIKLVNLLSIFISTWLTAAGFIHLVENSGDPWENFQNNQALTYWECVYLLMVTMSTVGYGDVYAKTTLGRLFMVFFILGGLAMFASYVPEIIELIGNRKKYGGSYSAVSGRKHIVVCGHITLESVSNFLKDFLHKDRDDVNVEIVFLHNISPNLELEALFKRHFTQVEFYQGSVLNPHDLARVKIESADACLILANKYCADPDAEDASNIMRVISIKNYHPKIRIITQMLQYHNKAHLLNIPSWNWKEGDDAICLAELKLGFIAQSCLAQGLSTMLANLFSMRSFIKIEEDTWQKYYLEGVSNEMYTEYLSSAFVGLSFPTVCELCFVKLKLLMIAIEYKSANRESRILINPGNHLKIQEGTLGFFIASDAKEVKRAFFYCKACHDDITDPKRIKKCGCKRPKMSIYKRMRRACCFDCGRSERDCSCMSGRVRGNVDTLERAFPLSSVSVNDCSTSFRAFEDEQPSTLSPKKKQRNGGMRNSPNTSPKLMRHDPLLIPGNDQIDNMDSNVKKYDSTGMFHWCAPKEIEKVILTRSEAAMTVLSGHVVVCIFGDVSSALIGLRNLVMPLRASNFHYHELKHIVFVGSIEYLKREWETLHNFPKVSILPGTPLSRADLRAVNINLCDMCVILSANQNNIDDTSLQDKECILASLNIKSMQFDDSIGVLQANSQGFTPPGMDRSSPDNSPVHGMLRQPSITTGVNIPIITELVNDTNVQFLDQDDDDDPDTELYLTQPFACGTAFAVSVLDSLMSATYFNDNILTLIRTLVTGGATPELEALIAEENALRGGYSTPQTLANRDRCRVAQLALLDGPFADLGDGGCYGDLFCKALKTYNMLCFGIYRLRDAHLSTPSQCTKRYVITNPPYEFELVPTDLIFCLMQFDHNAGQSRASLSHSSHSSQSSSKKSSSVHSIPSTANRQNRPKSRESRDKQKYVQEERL

Maxi-K current, % of control [%]	SMILES
120	O=C(CCc1ccc(O)cc1)c1c(O)cc(O)cc1O
167	O=c1c(O)c(-c2ccc(O)cc2)oc2cc(O)cc(O)c12
82.4	O=C(/C=C/c1ccccc1)c1ccccc1
103	O=c1cc(-c2ccccc2)oc2ccccc12
159	O=c1cc(-c2ccc(O)cc2)oc2cc(O)cc(O)c12
94.6	COc1cc(OC)c2c(=O)c(OC)c(-c3ccc(OC)c(OC)c3)oc2c1
74.4	O=C(/C=C/c1cccc([N+](=O)[O-])c1)c1ccccc1O
132	O=c1[nH]c2cc(C(F)(F)F)ccc2n1-c1cc(Cl)ccc1O
81.5	CC(=O)Nc1ccc(O)c(C(=O)/C=C/c2ccccc2)c1
